One assay has as its target T1, MCT1 (Homo sapiens, UniProt P53985).
T1 construct: BT-20 cells—a triple negative human breast cancer cell line expressing exclusively MCT1 (confirmed by Western blotting); host or cells: BT-20
T1 sequence (P53985 1-500): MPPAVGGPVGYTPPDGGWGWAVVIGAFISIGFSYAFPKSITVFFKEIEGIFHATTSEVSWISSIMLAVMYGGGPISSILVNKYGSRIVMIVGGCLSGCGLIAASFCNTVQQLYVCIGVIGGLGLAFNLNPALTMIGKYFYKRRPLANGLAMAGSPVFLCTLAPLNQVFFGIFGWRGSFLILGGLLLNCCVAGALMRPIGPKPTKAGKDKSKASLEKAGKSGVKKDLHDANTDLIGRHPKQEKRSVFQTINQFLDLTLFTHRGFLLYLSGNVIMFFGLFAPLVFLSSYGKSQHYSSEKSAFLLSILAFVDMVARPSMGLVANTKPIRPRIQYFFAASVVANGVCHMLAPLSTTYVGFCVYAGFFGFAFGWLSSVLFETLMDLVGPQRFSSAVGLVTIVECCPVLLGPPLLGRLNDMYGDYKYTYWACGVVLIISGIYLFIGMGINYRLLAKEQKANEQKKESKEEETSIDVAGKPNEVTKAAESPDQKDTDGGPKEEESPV
T1 sequence (P35613 140-385 partner limits assumed): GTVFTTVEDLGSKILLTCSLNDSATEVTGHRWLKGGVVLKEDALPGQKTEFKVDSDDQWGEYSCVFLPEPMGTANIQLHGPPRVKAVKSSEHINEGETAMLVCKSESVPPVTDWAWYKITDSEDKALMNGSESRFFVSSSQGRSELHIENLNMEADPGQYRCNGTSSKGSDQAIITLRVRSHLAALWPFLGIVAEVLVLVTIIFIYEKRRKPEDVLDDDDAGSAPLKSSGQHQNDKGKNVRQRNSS
Nature of the assay: MCT1 transport assay (L-lactate influx, BCECF-AM intracellular pH). In kind it is cell-based. To be noted: BT-20 cells expressing exclusively MCT1. An excerpt: The following in vitro MCT4 and MCT1 transport assays were used to measure the effect of the compounds on L-lactate influx into two different cell lines: • a) MDA-MB-231 cells—a triple negative human breast cancer cell line expressing exclusively MCT4 (confirmed by Western blotting) was used for the MCT4 transport assay, • b) BT-20 cells—a triple negative human breast cancer cell line expressing exclusively MCT1 (confirmed by Western blotting) was used for the
(§1) The compounds' efficacy in both assays was determined by calculating their IC50 value (the concentration of test compound that inhibited 50% of biological activity).
(§2) MCT4 is predominantly involved in cellular efflux of lactate from the cell, preventing intracellular acidification. In the MCT4 in vitro transport system described here it was possible to drive influx of lactate in the cells and test the compounds efficacy in preventing this process. MCT1 is involved in influx-efflux of lactate, and because it is closely related to MCT4, it is a major selectivity target for MCT4 inhibitor. The MCT1 in vitro transport system described here measured the influx of lactate in the cells and ability of test compounds in preventing this process.
BT-20 (ATCC); Media: EMEM+10% FBS+1% PS
(§3) Tyrode's Solution pH7.4 (NaCl 119 mM; KC1 5 mM; HEPES pH7.4 25 mM; CaCl2 2 mM; MgCl2 2 mM; Glucose 6 g/L)
(§4) The following assay was performed to assess MCT4 (MDA-MB-231 cell line) or MCT1 (BT-20 cell line) activity by monitoring the intracellular pH change that accompanies lactate/proton transport using the pH-sensitive fluorescent dye BCECF-AM.
(§5) Compound preparation: The compounds were serially diluted in 100% DMSO 1:3 for 8 pts and transferred (500 nl) to a 96-well plate by Echo.
(§6) Cell preparation: Cells were briefly rinsed with 10 ml of PBS solution to remove all traces of serum, trypsinized (0.05% Trypsin-EDTA) at 25° C. for 2-3 minutes and washed twice with Tyrode's solution. The cell viability and concentration were determined using Vi-Cell. Cells were resuspended in Tyrode's solution.
(§7) Cells were loaded with the pH sensitive dye BCECF-AM (5 uM final concentration from the 30 mM DMSO stock solution) at 37° C. for 30 minutes before being washed twice to remove excess dye and resuspended to 2 million/ml cells in Tyrode's solution. Cells were seeded into a 96-well plate (200,000 cells/well) directly onto the test compound or a reference compound for 10 minutes at 37° C. Following incubation with test compounds, 25 ul of 30 mM Sodium-L-lactate was added. This addition was performed on the FlexStation III as a part of a real-time kinetic protocol. The ratio of cellular fluorescence at 535 nm after excitation at 490 nm/440 nm was measured over time for baseline (pre-lactate addition) and post-lactate addition for 60 sec with or without compounds present. Inhibitory concentration response curves were generated for compounds and their IC50 values calculated.

The target in the next assay is T2, MCT4 (Homo sapiens, UniProt O15427).
T2 construct: MDA-MB-231 cells—a triple negative human breast cancer cell line expressing exclusively MCT4 (confirmed by Western blotting); host or cells: MDA-MB-231
T2 sequence (O15427 2-465 limits assumed): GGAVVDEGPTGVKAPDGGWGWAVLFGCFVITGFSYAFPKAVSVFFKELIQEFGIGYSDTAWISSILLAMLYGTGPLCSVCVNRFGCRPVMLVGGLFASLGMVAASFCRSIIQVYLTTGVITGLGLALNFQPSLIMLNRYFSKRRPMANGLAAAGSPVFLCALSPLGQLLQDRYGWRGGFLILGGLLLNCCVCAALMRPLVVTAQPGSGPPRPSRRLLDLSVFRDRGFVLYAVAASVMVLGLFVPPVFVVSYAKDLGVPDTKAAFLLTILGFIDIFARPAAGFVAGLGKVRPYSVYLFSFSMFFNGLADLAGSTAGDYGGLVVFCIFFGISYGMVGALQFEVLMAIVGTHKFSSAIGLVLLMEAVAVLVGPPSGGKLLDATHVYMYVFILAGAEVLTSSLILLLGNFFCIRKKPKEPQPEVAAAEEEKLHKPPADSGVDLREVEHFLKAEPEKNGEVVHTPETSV
Nature of the assay: MCT4 transport assay (L-lactate influx, BCECF-AM intracellular pH). In kind it is cell-based. To be noted: MDA-MB-231 cells expressing exclusively MCT4. The protocol:
as §1, §2, §3, §4, §5, §6, §7

Some results are limits rather than exact numbers.

As usually defined, the IC50 is the concentration that inhibits the measured activity by half. Read a high IC50 as lower potency. As for `Cc1cc2nc(C)c(O[C@@H]3CCN(c4ccc(-c5ccc(C(=O)N6CCOCC6)nn5)cc4)C3)c(C)n2n1` [Compound 20, (R)-morpholino(6-(4-(3-((2,5,7-trimethylpyrazolo[1,5-a]pyrimidin-6-yl)oxy)pyrrolidin-1-yl)phenyl)pyridazin-3-yl)methanone], the IC50 is above 1 µM against MCT1 and below 0.1 µM against MCT4.
With `Cc1nc2nc(C)c(O[C@@H]3CCN(c4cnc(C56CC(CN7CC8(COC8)C7)(C5)C6)nc4)C3)c(C)n2n1` [Compound 21, (R)-6-((3-(5-(3-((2,5,7-trimethyl-[1,2,4]triazolo[1,5-a]pyrimidin-6-yl)oxy)pyrrolidin-1-yl)pyrimidin-2-yl)bicyclo[1.1.1]pentan-1-yl)methyl)-2-oxa-6-azaspiro[3.3]heptane], the IC50 at MCT1 was above 1 µM; at MCT4 it was 0.5 to 1 µM.
For the compound `COC1CN(CC23CC(c4ncc(N5CC[C@@H](Oc6c(C)nc7nc(C)nn7c6C)C5)cn4)(C2)C3)C1` [Compound 22, (R)-6-((1-(2-(3-((3-methoxyazetidin-1-yl)methyl)bicyclo[1.1.1]pentan-1-yl)pyrimidin-5-yl)pyrrolidin-3-yl)oxy)-2,5,7-trimethyl-[1,2,4]triazolo[1,5-a]pyrimidine], the IC50 is above 1 µM at MCT1 and below 0.1 µM against MCT4.
With `Cc1nc2nc(C)c(O[C@@H]3CCN(c4cnc(C56CC(CN7CCOCC7)(C5)C6)nc4)C3)c(C)n2n1` [Compound 23, (R)-4-((3-(5-(3-((2,5,7-trimethyl-[1,2,4]triazolo[1,5-a]pyrimidin-6-yl)oxy)pyrrolidin-1-yl)pyrimidin-2-yl)bicyclo[1.1.1]pentan-1-yl)methyl)morpholine], the IC50 was above 1 µM against MCT1 and below 0.1 µM at MCT4.
The corresponding values for `Cc1nc2nc(C)c(O[C@@H]3CCN(c4cnc(C56CC(C(=O)N7CC8(COC8)C7)(C5)C6)nc4)C3)c(C)n2n1` [Compound 24, (R)-(2-oxa-6-azaspiro[3.3]heptan-6-yl)(3-(5-(3-((2,5,7-trimethyl-[1,2,4]triazolo[1,5-a]pyrimidin-6-yl)oxy)pyrrolidin-1-yl)pyrimidin-2-yl)bicyclo[1.1.1]pentan-1-yl)methanone] are above 1 µM and above 1 µM.
`COC1CN(C(=O)C23CC(c4ncc(N5CC[C@@H](Oc6c(C)nc7nc(C)nn7c6C)C5)cn4)(C2)C3)C1` [Compound 25, (R)-(3-methoxyazetidin-1-yl)(3-(5-(3-((2,5,7-trimethyl-[1,2,4]triazolo[1,5-a]pyrimidin-6-yl)oxy)pyrrolidin-1-yl)pyrimidin-2-yl)bicyclo[1.1.1]pentan-1-yl)methanone]: the IC50 is above 1 µM on MCT1 and 0.5 to 1 µM against MCT4.
In the case of `Cc1nc2nc(C)c(O[C@@H]3CCN(c4cnc(C56CC(C(=O)N7CCOCC7)(C5)C6)nc4)C3)c(C)n2n1` [Compound 26, (R)-morpholino(3-(5-(3-((2,5,7-trimethyl-[1,2,4]triazolo[1,5-a]pyrimidin-6-yl)oxy)pyrrolidin-1-yl)pyrimidin-2-yl)bicyclo[1.1.1]pentan-1-yl)methanone], the IC50 on MCT1 is above 1 µM; against MCT4, 0.1 to 0.499 µM.
The corresponding values for `Cc1nc2nc(C)c(O[C@@H]3CCN(c4ccc([C@H]5CC[C@H](C(=O)N6CC7(COC7)C6)CC5)cc4)C3)c(C)n2n1` [Compound 33, (2-oxa-6-azaspiro[3.3]heptan-6-yl)((1R,4r)-4-(4-((R)-3-((2,5,7-trimethyl-[1,2,4]triazolo[1,5-a]pyrimidin-6-yl)oxy)pyrrolidin-1-yl)phenyl)cyclohexyl)methanone] are above 1 µM and below 0.1 µM.
Consider `COC1CN(C(=O)[C@H]2CC[C@H](c3ccc(N4CC[C@@H](Oc5c(C)nc6nc(C)nn6c5C)C4)cc3)CC2)C1` [Compound 34, (3-methoxyazetidin-1-yl)((1R,4r)-4-(4-((R)-3-((2,5,7-trimethyl-[1,2,4]triazolo[1,5-a]pyrimidin-6-yl)oxy)pyrrolidin-1-yl)phenyl)cyclohexyl)methanone], for which the figures for the IC50 against MCT1 and on MCT4 were above 1 µM and below 0.1 µM, respectively.
In the case of `Cc1nc2nc(C)c(O[C@@H]3CCN(c4ccc([C@H]5CC[C@H](C(=O)N6CCOCC6)CC5)cc4)C3)c(C)n2n1` [Compound 35, morpholino((1R,4r)-4-(4-((R)-3-((2,5,7-trimethyl-[1,2,4]triazolo[1,5-a]pyrimidin-6-yl)oxy)pyrrolidin-1-yl)phenyl)cyclohexyl)methanone], the IC50 was above 1 µM at MCT1 and below 0.1 µM on MCT4.
